Drawing on patent US9815839B2, “N-(1-(substituted-phenyl)ethyl)-9H-purin-6-amines as PI3K inhibitors” (Incyte Corporation, priority 2010, dated 2017), this text covers IC50 for 31 molecules.

Structures can show the parent of a compound that is named as a salt. A value given as a limit tells only on which side of the number the result lay.

The target of this test is T1, PI3Kδ (p110δ/p85α) (Homo sapiens, UniProt O00329).
T1 construct: purchased Millipore (Bedford, Mass.)
T1 sequence (O00329 whole entry, species assumed): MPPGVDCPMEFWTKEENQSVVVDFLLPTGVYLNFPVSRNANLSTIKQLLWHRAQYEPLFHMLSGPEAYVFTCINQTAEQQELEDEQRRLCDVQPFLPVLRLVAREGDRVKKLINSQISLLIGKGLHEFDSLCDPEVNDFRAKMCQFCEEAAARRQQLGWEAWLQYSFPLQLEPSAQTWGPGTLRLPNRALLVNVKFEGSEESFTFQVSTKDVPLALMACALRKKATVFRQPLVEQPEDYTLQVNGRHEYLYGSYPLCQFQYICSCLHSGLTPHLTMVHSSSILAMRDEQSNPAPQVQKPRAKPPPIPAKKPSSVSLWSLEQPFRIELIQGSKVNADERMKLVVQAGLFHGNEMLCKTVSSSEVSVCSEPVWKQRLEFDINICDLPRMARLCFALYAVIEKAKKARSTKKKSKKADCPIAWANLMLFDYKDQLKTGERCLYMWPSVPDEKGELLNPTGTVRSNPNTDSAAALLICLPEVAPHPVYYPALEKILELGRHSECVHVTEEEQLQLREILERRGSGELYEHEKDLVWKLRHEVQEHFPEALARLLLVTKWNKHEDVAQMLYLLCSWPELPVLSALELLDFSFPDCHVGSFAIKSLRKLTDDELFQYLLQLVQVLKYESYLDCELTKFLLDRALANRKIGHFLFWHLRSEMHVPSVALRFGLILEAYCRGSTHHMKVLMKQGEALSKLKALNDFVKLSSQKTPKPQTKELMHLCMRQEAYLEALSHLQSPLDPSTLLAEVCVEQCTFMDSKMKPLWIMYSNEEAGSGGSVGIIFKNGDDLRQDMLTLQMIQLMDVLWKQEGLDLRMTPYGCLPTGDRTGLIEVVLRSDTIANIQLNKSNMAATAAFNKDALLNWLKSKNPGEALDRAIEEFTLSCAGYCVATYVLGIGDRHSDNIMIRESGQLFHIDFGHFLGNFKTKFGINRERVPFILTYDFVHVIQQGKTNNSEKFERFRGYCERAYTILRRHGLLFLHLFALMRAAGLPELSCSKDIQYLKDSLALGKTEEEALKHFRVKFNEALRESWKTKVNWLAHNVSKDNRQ
T1 sequence (P27986 whole entry partner, species assumed): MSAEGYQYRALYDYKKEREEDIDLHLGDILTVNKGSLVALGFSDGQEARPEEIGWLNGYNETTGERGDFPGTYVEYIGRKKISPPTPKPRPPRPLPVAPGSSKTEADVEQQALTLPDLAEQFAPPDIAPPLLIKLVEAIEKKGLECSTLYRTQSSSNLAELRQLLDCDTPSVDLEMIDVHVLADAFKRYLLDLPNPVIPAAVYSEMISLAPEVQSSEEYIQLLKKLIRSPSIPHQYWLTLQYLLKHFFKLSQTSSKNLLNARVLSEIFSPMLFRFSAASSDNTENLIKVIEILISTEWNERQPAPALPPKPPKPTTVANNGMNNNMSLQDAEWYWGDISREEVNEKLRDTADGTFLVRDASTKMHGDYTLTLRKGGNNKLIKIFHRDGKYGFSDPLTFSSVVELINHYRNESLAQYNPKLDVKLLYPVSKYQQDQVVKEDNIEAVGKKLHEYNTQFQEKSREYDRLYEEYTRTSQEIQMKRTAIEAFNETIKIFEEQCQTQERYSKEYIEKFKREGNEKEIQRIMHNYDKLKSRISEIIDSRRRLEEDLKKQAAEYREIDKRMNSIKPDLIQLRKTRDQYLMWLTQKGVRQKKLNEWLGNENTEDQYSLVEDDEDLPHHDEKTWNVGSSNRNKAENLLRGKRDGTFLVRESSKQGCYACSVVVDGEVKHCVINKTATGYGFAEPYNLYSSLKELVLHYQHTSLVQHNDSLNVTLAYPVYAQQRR
Kind of test: PI3Kδ scintillation proximity assay. In kind it is biochemical. Conditions: 20 μM ATP, 4 nM PI3Kδ. From the text: Example A: PI3Kδ Scintillation Proximity Assay
Materials: [γ-^33P]ATP (10 mCi/mL) was purchased from Perkin-Elmer (Waltham, Mass.). Lipid kinase substrate, D-myo-Phosphatidylinositol 4,5-bisphosphate (PtdIns(4,5)P2)D (+)-sn-1,2-di-O-octanoylglyceryl, 3-O-phospho linked (PIP2), CAS 204858-53-7, was purchased from Echelon Biosciences (Salt Lake City, Utah). PI3Kδ (p110δ/p85α) was purchased from Millipore (Bedford, Mass.). ATP, MgCl2, DTT, EDTA, MOPS and CHAPS were purchased from Sigma-Aldrich (St. Louis, Mo.). Wheat Germ Agglutinin (WGA) YSi SPA Scintillation Beads was purchased from GE healthcare life sciences (Piscataway, N.J.).
The kinase reaction was conducted in polystyrene 384-well matrix white plate from Thermo Fisher Scientific in a final volume of 25 μL. Inhibitors were first diluted serially in DMSO and added to the plate wells before the addition of other reaction components. The final concentration of DMSO in the assay was 0.5%. The PI3K assays were carried out at room temperature in 20 mM MOPS, pH 6.7, 10 mM MgCl2, 5 mM DTT and CHAPS 0.03%. Reactions were initiated by the addition of ATP, the final reaction mixture consisted of 20 μM PIP2,20 μM ATP, 0.2 μCi [γ-^33P] ATP, 4 nM PI3Kδ. Reactions were incubated for 210 minutes and terminated by the addition of 40 μL SPA beads suspended in quench buffer: 150 mM potassium phosphate pH 8.0, 20% glycerol. 25 mM EDTA, 400 µM ATP. The final concentration of SPA beads is 1.0 mg/mL. After the plate sealing, plates were shaken overnight at room temperature and centrifuged at 1800 rpm for 10 minutes, the radioactivity of the product was determined by scintillation counting on Topcount (Perkin-Elmer). IC50 determination was performed by fitting the curve of percent control activity versus the log of the inhibitor concentration using the GraphPad Prism 3.0 software.
On the technique in general: In a scintillation proximity assay essentially only radioactivity close to the scintillant gives light.
With `COc1c(C(C)Nc2ncnc3[nH]cnc23)cc(Cl)c(C)c1-c1ccc(C(=O)N2CC(C#N)C2)c(F)c1` (stereo not shown) [Example 63, 1-({3′-Chloro-3-fluoro-6′-methoxy-2′-methyl-5′-[1-(9H-purin-6-ylamino)ethyl]biphenyl-4-yl}carbonyl)azetidine-3-carbonitrile], the IC50 (in general, the concentration at which inhibition is half-maximal) is below 50 nM.

For `CCNC(=O)c1ccc(-c2c(C)c(Cl)cc(C(C)Nc3ncnc4[nH]cnc34)c2OC)cc1F` (stereo not shown) [Example 64, 3′-chloro-N-ethyl-3-fluoro-6′-methoxy-2′-methyl-5′-[1-(9H-purin-6-ylamino)ethyl]biphenyl-4-carboxamid], the IC50 is below 50 nM.

`COc1c(C(C)Nc2ncnc3[nH]cnc23)cc(Cl)c(C)c1-c1ccc(C(=O)N(C)C)c(F)c1` (stereo not shown) [Example 65, 3′-chloro-3-fluoro-6′-methoxy-N,N,2′-trimethyl-5′-[1-(9H-purin-6-ylamino)ethyl]biphenyl-4-carboxamide] gave an IC50 below 50 nM.

Regarding `COc1c(C(C)Nc2ncnc3[nH]cnc23)cc(Cl)c(C)c1-c1ccc(C(=O)N2CCCC2)c(F)c1` (stereo not shown) [Example 66, N-{1-[5-chloro-3′-fluoro-2-methoxy-6-methyl-4′-(pyrrolidin-1-ylcarbonyl)biphenyl-3-yl]ethyl}-9H-purin-6-amine], the IC50 was below 50 nM.

`COc1c(C(C)Nc2ncnc3[nH]cnc23)cc(Cl)c(C)c1-c1cc(F)cc(Cl)c1` (stereo not shown) [Example 85, N-[1-(3′,5-dichloro-5′-fluoro-2-methoxy-6-methylbiphenyl-3-yl)ethyl]-9H-purin-6-amine] yielded an IC50 of 250 to 500 nM.

`COc1c(C(C)Nc2ncnc3[nH]cnc23)cc(Cl)c(C)c1-c1ccc(OC(F)(F)F)cc1` (stereo not shown) [Example 90, N-{1-[5-chloro-2-methoxy-6-methyl-4′-(trifluoromethoxy)biphenyl-3-yl]ethyl}-9H-purin-6-amine] displayed an IC50 of 250 to 500 nM.

In turn, `COc1c(C(C)Nc2ncnc3[nH]cnc23)cc(Cl)c(C)c1-c1ccc(Cl)cc1` (stereo not shown) [Example 99, N-[1-(4′,5-dichloro-2-methoxy-6-methylbiphenyl-3-yl)ethyl]-9H-purin-6-amine] came in with an IC50 of 250 to 500 nM.

`COc1ccc(-c2c(C)c(Cl)cc(C(C)Nc3ncnc4[nH]cnc34)c2OC)cc1` (stereo not shown) [Example 101] returned an IC50 of 100 to 250 nM.

The molecule `COc1ccc(-c2c(C)c(Cl)cc(C(C)Nc3ncnc4[nH]cnc34)c2OC)cc1C` (stereo not shown) [Example 102, N-[1-(5-chloro-2,4′-dimethoxy-3′,6-dimethylbiphenyl-3-yl)ethyl]-9H-purin-6-amine] returned a half-inhibitory concentration (IC50) of 100 to 250 nM.

In the case of `COc1cccc(-c2c(C)c(Cl)cc(C(C)Nc3ncnc4[nH]cnc34)c2OC)c1` (stereo not shown) [Example 103], the IC50 was below 50 nM.

The molecule `COc1c(C(C)Nc2ncnc3[nH]cnc23)cc(Cl)c(C)c1-c1cccc(NC(C)=O)c1` (stereo not shown) [Example 104, N-{3′-chloro-6′-methoxy-2′-methyl-5′-[1-(9H-purin-6-ylamino)ethyl]biphenyl-3-yl}acetamide] came in with an IC50 below 50 nM.

`COc1c(C(C)Nc2ncnc3[nH]cnc23)cc(Cl)c(C)c1-c1ccc(F)c(F)c1` (stereo not shown) [Example 105, N-[1-(5-chloro-3′,4′-difluoro-2-methoxy-6-methylbiphenyl-3-yl)ethyl]-9H-purin-6-amine] registered an IC50 below 50 nM.

As to `COc1c(C(C)Nc2ncnc3[nH]cnc23)cc(Cl)c(C)c1-c1cncc(F)c1` (stereo not shown) [Example 108, N-{1-[5-Chloro-3-(5-fluoropyridin-3-yl)-2-methoxy-4-methylphenyl]ethyl}-9H-purin-6-amine], the IC50 is below 50 nM.

As to `COc1c(C(C)Nc2ncnc3[nH]cnc23)cc(Cl)c(C)c1-c1cncc(C#N)c1` (stereo not shown) [Example 114, 5-{3-chloro-6-methoxy-2-methyl-5-[1-(9H-purin-6-ylamino)ethyl]phenyl}nicotinonitrile], the IC50 is below 50 nM.

`COc1c(C(C)Nc2ncnc3[nH]cnc23)cc(Cl)c(C)c1-c1cnc(N)nc1` (stereo not shown) [Example 115, N-{1-[3-(2-aminopyrimidin-5-yl)-5-chloro-2-methoxy-4-methylphenyl]ethyl}-9H-purin-6-amine] had an IC50 below 50 nM.

Molecule `COc1c(C(C)Nc2ncnc3[nH]cnc23)cc(Cl)c(C)c1-c1cnn(CC#N)c1` (stereo not shown) [Example 117, (4-{3-Chloro-6-methoxy-2-methyl-5-[1-(9H-purin-6-ylamino)ethyl]phenyl}-1H-pyrazol-1-yl)acetonitrile trifluoroacetate] came in with an IC50 below 50 nM.

With `COc1c(C(C)Nc2ncnc3[nH]cnc23)cc(F)c(C)c1-c1ccc(S(C)(=O)=O)cc1` (stereo not shown) [Example 118, N-{1-[5-Fluoro-2-methoxy-6-methyl-4′-(methylsulfonyl)biphenyl-3-yl]ethyl}-9H-purin-6-amine], the IC50 was 50 to 100 nM.

Molecule `CCOc1cccc(-c2c(C)c(F)cc(C(C)Nc3ncnc4[nH]cnc34)c2OC)c1` (stereo not shown) [Example 119, N-[1-(3′-ethoxy-5-fluoro-2-methoxy-6-methylbiphenyl-3-yl)ethyl]-9H-purin-6-amine] registered an IC50 of 100 to 250 nM.

Molecule `COc1c(C(C)Nc2ncnc3[nH]cnc23)cc(F)c(C)c1-c1ccc(C(=O)NC2CC2)cc1` (stereo not shown) [Example 120, N-cyclopropyl-3′-fluoro-6′-methoxy-2′-methyl-5′-[1-(9H-purin-6-ylamino)ethyl]biphenyl-4-carboxamide] had an IC50 of 50 to 100 nM.

`COc1c(C(C)Nc2ncnc3[nH]cnc23)cc(F)c(C)c1-c1cnn(C)c1` (stereo not shown) [Example 121, N-{1-[5-fluoro-2-methoxy-4-methyl-3-(1-methyl-1H-pyrazol-4-yl)phenyl]ethyl}-9H-purin-6-amine] displayed an IC50 below 50 nM.

Molecule `COc1c(C(C)Nc2ncnc3[nH]cnc23)cc(F)c(C)c1-c1ccnn1C` (stereo not shown) [Example 122, N-{1-[5-fluoro-2-methoxy-4-methyl-3-(1-methyl-1H-pyrazol-5-yl)phenyl]ethyl}-9H-purin-6-amine] gave an IC50 of 250 to 500 nM.

In turn, `COc1c(C(C)Nc2ncnc3[nH]cnc23)cc(F)c(C)c1-c1cnc(N)nc1` (stereo not shown) [Example 123, N-{1-[3-(2-aminopyrimidin-5-yl)-5-fluoro-2-methoxy-4-methylphenyl]ethyl}-9H-purin-6-amine] registered an IC50 of 50 to 100 nM.

`COc1c(-c2cncc(Cl)c2)cc(Cl)cc1C(C)Nc1ncnc2[nH]cnc12` (stereo not shown) [Example 125, N-{1-[5-Chloro-3-(5-chloropyridin-3-yl)-2-methoxyphenyl]ethyl}-9H-purin-6-amine] had an IC50 of 50 to 100 nM.

Molecule `Cc1c(Cl)cc(C(C)Nc2ncnc3[nH]cnc23)c(OCCN2CCOCC2)c1-c1ccncc1` (stereo not shown) [Example 126, N-{1-[5-Chloro-4-methyl-2-(2-morpholin-4-ylethoxy)-3-pyridin-4-ylphenyl]ethyl}-9H-purin-6-amine] had an IC50 below 50 nM.

Consider `Cc1c(Cl)cc(C(C)Nc2ncnc3[nH]cnc23)c(C)c1-c1ccncc1` (stereo not shown) [Example 127, N-[1-(5-Chloro-2,4-dimethyl-3-pyridin-4-ylphenyl)ethyl]-9H-purin-6-amine], for which the half-inhibitory concentration (IC50) was below 50 nM.

The molecule `Cc1c(Cl)cc(C(C)Nc2ncnc3[nH]cnc23)c(OCCN2CCOCC2)c1-c1ccc(S(C)(=O)=O)cc1` (stereo not shown) [Example 128, N-{1-[5-Chloro-6-methyl-4′-(methylsulfonyl)-2-(2-morpholin-4-ylethoxy)biphenyl-3-yl]ethyl}-9H-purin-6-amine] displayed an IC50 below 50 nM.

`COc1ncc(-c2cc(Cl)cc(C(C)Nc3ncnc4[nH]cnc34)c2-c2cc(F)cc(F)c2)cn1` (stereo not shown) [Example 129, N-{1-[4-chloro-3′,5′-difluoro-6-(2-methoxy-pyrimidin-5-yl)biphenyl-2-yl]ethyl}-9H-purin-6-amine] gave an IC50 below 50 nM.

`CC(=O)Nc1ccc(-c2cc(Cl)cc(C(C)Nc3ncnc4[nH]cnc34)c2-c2cc(F)cc(F)c2)cc1` (stereo not shown) [Example 130, N-{5′-chloro-3″,5″-difluoro-3′-[1-(9H-purin-6-ylamino)ethyl]-1,1′:2′,1″-terphenyl-4-yl}acetamide] gave an IC50 below 50 nM.

Turning to `CC(Nc1ncnc2[nH]cnc12)c1cc(Cl)cc(-c2ccncc2)c1-c1cc(F)cc(F)c1` (stereo not shown) [Example 131, N-[1-(4-chloro-3′,5′-difluoro-6-pyridin-4-ylbiphenyl-2-yl)ethyl]-9H-purin-6-amine], the IC50 was below 50 nM.

As to `CC(Nc1ncnc2[nH]cnc12)c1cc(Cl)cc(-c2cncnc2)c1-c1cc(F)cc(F)c1` (stereo not shown) [Example 132, N-[1-(4-chloro-3′,5′-difluoro-6-pyrimidin-5-ylbiphenyl-2-yl)ethyl]-9H-purin-6-amine], the IC50 was below 50 nM.

On to `CC(Nc1ncnc2[nH]cnc12)c1cc(Cl)cc(-c2cc(F)nc(F)c2)c1-c1cc(F)cc(F)c1` (stereo not shown) [Example 133, N-{1-[4-chloro-6-(2,6-difluoropyridin-4-yl)-3′,5′-difluorobiphenyl-2-yl]ethyl}-9H-purin-6-amine], for which the IC50 was 50 to 100 nM.
